What is called viability is a read-out of living cells in per cent, often relative to untreated cells.

The nature of data set [1]: in vitro. As to conditions: human, hek293 cells. Also on record: species or system HB2, CCD841.
Data set [2] is described as follows: in vitro. On the set-up: species or system HB2, HEK293. As to conditions: human, ccd841 cells.
In a further data set the target is T1, PCAF (Homo sapiens, UniProt Q92831).
T1 construct: gene KAT2B
On the set-up: Intact protein LC/MS covalent labelling, fragments in pools of five, 200 uM each, 4 °C. As to conditions: 24 h, 4 °C, pool of five; 200 µM; covalent.

Another data set addresses T2, NUDT7 (Homo sapiens, UniProt P0C024).
T2 construct: residues 14-235, E. coli, pNIC28-Bsa4, N-terminal His6 tag removed by TEV, construct 26672 Da
Also on record: Intact protein LC/MS covalent labelling, fragments in pools of five, 200 uM each, 4 °C. The following applies: 24 h, 4 °C, pool of five; 200 µM; covalent.

For the next data set, the target named is T3, BSA (Bos taurus, UniProt P02769).
T3 construct: gene ALB
T3 sequence (P02769 whole entry): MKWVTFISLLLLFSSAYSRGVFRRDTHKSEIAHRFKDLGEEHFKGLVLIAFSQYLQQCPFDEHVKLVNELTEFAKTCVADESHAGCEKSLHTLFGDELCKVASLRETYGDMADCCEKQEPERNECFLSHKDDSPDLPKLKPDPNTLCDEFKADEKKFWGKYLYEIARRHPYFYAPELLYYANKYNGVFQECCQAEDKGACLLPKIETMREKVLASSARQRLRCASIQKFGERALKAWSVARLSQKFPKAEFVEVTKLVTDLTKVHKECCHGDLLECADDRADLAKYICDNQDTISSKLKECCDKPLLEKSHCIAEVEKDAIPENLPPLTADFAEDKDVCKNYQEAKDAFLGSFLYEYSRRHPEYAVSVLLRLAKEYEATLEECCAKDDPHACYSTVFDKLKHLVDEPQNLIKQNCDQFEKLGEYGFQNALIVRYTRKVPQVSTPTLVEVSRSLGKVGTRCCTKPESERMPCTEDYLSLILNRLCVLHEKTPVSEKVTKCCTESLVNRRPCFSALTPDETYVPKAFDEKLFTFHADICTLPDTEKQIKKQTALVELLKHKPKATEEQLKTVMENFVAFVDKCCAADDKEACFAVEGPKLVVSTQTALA
On the set-up: Intact protein LC/MS covalent labelling, fragments in pools of five, 200 uM each, 4 °C. As to conditions: 24 h, 4 °C, pool of five; 200 µM; covalent.

A further data set deals with T4, OTUB2 (OTUB2A) (Homo sapiens, UniProt Q96DC9).
T4 construct: full length residues 1-234, E. coli BL21(DE3)-R3, His tag removed by TEV, construct 27312 Da
T4 sequence (Q96DC9 1-234): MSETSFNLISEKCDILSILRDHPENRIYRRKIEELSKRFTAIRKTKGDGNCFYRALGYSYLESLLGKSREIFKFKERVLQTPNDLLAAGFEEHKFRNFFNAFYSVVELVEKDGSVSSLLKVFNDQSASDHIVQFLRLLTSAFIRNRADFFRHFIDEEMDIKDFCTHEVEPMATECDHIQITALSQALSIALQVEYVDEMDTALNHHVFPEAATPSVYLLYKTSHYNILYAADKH
On the set-up: Intact protein LC/MS covalent labelling, fragments in pools of five, 200 uM each, 4 °C. The following applies: 24 h, 4 °C, pool of five; 200 µM; covalent.

Data set [3] is described as follows: in vitro. Also on record: species or system CCD841, HEK293. As to conditions: human, hb2 cells, read-out: HB-2 Cells Viability (%).

Where two headings read alike, the source gives them in different places.

T1 sequence (Q92831 whole entry): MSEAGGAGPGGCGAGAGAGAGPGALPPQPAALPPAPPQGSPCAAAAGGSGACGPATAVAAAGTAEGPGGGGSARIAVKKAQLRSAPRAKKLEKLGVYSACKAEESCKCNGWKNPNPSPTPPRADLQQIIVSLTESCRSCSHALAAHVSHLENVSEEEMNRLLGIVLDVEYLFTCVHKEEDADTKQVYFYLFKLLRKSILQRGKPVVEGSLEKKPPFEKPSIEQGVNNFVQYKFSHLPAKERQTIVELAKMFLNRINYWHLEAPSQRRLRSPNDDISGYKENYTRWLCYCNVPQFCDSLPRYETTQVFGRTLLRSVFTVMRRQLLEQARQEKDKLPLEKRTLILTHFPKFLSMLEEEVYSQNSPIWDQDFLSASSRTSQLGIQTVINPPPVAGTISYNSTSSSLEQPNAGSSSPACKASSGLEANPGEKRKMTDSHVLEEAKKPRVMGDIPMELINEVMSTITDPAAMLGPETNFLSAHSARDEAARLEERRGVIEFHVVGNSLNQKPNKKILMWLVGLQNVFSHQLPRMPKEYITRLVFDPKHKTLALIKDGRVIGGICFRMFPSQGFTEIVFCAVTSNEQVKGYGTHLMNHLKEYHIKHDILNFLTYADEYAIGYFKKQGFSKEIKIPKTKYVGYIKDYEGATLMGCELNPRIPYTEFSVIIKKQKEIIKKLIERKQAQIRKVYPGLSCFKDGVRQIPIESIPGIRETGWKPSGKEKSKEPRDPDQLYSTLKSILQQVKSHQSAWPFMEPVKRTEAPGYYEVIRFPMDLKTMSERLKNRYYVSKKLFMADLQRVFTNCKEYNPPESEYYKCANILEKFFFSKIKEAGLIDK
T2 sequence (P0C024 14-235): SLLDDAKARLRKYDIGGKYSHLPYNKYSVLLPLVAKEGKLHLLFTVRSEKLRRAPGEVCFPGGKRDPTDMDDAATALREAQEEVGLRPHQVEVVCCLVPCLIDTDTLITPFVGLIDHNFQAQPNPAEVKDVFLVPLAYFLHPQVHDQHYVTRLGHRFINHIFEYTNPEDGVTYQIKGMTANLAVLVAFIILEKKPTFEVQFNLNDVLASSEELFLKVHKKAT

`CC1Cc2cc(S(N)(=O)=O)ccc2N1C(=O)CCl` (centres unmarked) [PCM-0102207]: the values for the viability at 48 h, 10 µM in the data set “in vitro [1]”, in “in vitro [2]” and in the data set “in vitro [3]” were 16.5%, 34.2% and 58.7%, respectively. On PCAF, this compound showed a PCAF of 0. The same compound returned an NUDT7 on NUDT7 of 0.07. At BSA, this compound had a BSA of 0. For the same compound, at OTUB2 (OTUB2A), the OTUB2 stood at 0.
Turning to `COC(=O)C1Cc2ccccc2CN1C(=O)CCl` (centres unmarked) [PCM-0102841], the values for the viability at 48 h, 10 µM in the data set “in vitro [1]”, in “in vitro [2]” and in the data set “in vitro [3]” were 60.3%, 77.3% and 96.4%, respectively. Further, the PCAF on PCAF is 0. In addition, the NUDT7 on NUDT7 stood at 0.19. The same compound gave a BSA at BSA of 0. Further, the OTUB2 at OTUB2 (OTUB2A) is given as 0.41.
For `C=CC(=O)N1CCC(C(=O)N(C)c2ccccc2)C1` (centres unmarked) [PCM-0102771], the viability at 48 h, 10 µM in “in vitro [1]” was 72.2%; in the data set “in vitro [2]”, 106%; in “in vitro [3]”, 100%. Moreover, on PCAF, the PCAF amounted to 0. The compound further displayed an NUDT7 on NUDT7 of 0. Also, the BSA on BSA came to 0. This compound also yielded an OTUB2 on OTUB2 (OTUB2A) of 0.
For `O=C(CCl)N1CCC(c2ccccc2)=N1` [PCM-0102150], the viability at 48 h, 10 µM in “in vitro [1]” stood at 32.7%; in “in vitro [2]”, 71.8%; in the data set “in vitro [3]” it was 31.2%. The same compound showed a PCAF on PCAF of 0. The compound also returned an NUDT7 at NUDT7 of 0. Besides, the BSA on BSA is recorded as 0. At OTUB2 (OTUB2A), this compound had an OTUB2 of 0.
Consider `O=C(CCl)NCC1COc2ccccc2O1` (centres unmarked) [PCM-0102881], for which the viability at 48 h, 10 µM worked out at 56.3% in “in vitro [1]”, 76.2% in the data set “in vitro [2]” and 81% in “in vitro [3]”. The compound further returned a PCAF at PCAF of 0. On NUDT7, this compound showed an NUDT7 of 0. For the same compound, the BSA on BSA amounted to 0. At OTUB2 (OTUB2A), this compound gave an OTUB2 of 0.39.
Take `O=C(CCl)N1CCN(S(=O)(=O)c2ccc(F)c(F)c2)CC1` [PCM-0102361]: the viability at 48 h, 10 µM came out at 5.4% in “in vitro [1]”, 48.1% in the data set “in vitro [2]” and 2.5% in the data set “in vitro [3]”. Further, the PCAF at PCAF amounted to 0. Also, at NUDT7, the NUDT7 came out at 0. This compound also came in with a BSA at BSA of 0. At OTUB2 (OTUB2A), the OTUB2 came out at 0.
For the compound `O=C(CCl)Nc1ccccc1N1CCCCC1` [PCM-0102860], the viability at 48 h, 10 µM in the data set “in vitro [1]” amounted to 97.5%; in “in vitro [2]”, 109%; in “in vitro [3]”, 111%. The PCAF on PCAF stood at 0. The compound also gave an NUDT7 at NUDT7 of 0. In addition, the BSA on BSA turned out to be 0. The same compound came in with an OTUB2 on OTUB2 (OTUB2A) of 0.
As to `CCC1c2ccsc2CCN1C(=O)CCl` (centres unmarked) [PCM-0103051], the viability at 48 h, 10 µM in the data set “in vitro [1]” stood at 6%; in the data set “in vitro [2]”, 14%; in “in vitro [3]” it was 13.5%. Also, the PCAF on PCAF worked out at 0. On NUDT7, the NUDT7 is reported as 0.3. This compound also returned a BSA at BSA of 0. This compound registered an OTUB2 on OTUB2 (OTUB2A) of 0.
With `C=CC(=O)NC1(C2CC2)CCOCC1` [PCM-0102450], the viability at 48 h, 10 µM in “in vitro [1]” worked out at 111%; in “in vitro [2]” it was 106%; in “in vitro [3]”, 96.2%. The compound further had a PCAF on PCAF of 0. The NUDT7 at NUDT7 came to 0. The same compound yielded a BSA at BSA of 0. The compound also showed an OTUB2 at OTUB2 (OTUB2A) of 0.
Regarding `Cc1ccc(C)c(NC(=O)CCl)c1` [PCM-0102398], the viability at 48 h, 10 µM in the data set “in vitro [1]” stood at 51.5%; in the data set “in vitro [2]”, 62.3%; in “in vitro [3]” it was 59.4%. This compound came in with a PCAF on PCAF of 0. On NUDT7, this compound registered an NUDT7 of 0. Besides, the BSA at BSA was 0. This compound displayed an OTUB2 at OTUB2 (OTUB2A) of 0.
Consider `N#Cc1c(NC(=O)CCl)sc2c1CCC2` [PCM-0102452], for which the values for the viability at 48 h, 10 µM in “in vitro [1]”, in “in vitro [2]” and in the data set “in vitro [3]” were 96.6%, 93.5% and 87.2%, respectively. This compound displayed a PCAF at PCAF of 0. Further, the NUDT7 on NUDT7 was determined as 0. Besides, the BSA at BSA is reported as 0. For the same compound, at OTUB2 (OTUB2A), the OTUB2 amounted to 0.07.

These data come from publication PMC6556873, “Rapid Covalent-Probe Discovery by Electrophile-Fragment Screening” (Journal of the American Chemical Society, 2019).
